Experimental data as given in patent publication US12570662B2, “Substituted pyrrolo[1,2-b]pyridazines as bifunctional degraders of interleukin-1 receptor-associated kinases” (Nurix Therapeutics, Inc., priority 2021, dated 2026).

Biological target: T1, IRAK4 (Homo sapiens, UniProt Q9NWZ3)
T1 construct: C-terminal HiBiT-tagged Jurkat cells (polyclonal cell line or clone 8D5); endogenous in cells; host or cells: Jurkat cells (polyclonal cell line or clone 8D5), HiBiT-tagged
T1 sequence (Q9NWZ3 1-460): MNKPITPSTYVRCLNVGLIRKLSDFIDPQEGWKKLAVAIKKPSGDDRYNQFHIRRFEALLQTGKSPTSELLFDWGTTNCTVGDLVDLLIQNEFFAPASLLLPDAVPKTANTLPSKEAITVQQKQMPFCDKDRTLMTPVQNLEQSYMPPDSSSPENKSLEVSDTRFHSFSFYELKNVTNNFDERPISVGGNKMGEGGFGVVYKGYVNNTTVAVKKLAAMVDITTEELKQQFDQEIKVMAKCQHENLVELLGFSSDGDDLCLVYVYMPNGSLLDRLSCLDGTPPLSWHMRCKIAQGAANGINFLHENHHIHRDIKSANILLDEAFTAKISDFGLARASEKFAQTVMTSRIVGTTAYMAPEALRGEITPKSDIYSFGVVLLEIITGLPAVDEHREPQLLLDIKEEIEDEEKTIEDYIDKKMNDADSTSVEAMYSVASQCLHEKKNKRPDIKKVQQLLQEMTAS
Assay: IRAK4 Degradation HiBit Assay
Format: cell-based
Details: C-terminal HiBiT-tagged Jurkat cells, 4 hrs incubation; for DC50: % IRAK4 remaining, four-parameter fit (IC50 used as DC50); for Dmax: from fit of % IRAK4 remaining, read-out: Dmax
Method in brief: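 Jurkat cells carrying C-terminal HiBiT-tagged IRAK4 (polyclonal or clone 8D5) exposed to compound, 10 μM–0.1 nM final over 11 points, for 4 h at 32 °C. Remaining IRAK4 measured by lytic HiBiT/LgBiT luminescence relative to DMSO. DC50 and Dmax taken from four-parameter variable-slope fits.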

Compound CNc1cc(-c2ccc3cc(C#N)cnn23)ncc1-c1nnc(N2CCN(C(=O)CC[C@@H]3CCN(c4ccc([C@@H]5CCC(=O)NC5=O)cn4)C3)CC2)s1 (racemic) [Example 45, 7-{5-[5-(4-{3-[(3RS)-1-{5-[(3RS&)-2,6-dioxopiperidin-3-yl]pyridin-2-yl}pyrrolidin-3-yl]propanoyl}piperazin-1-yl)-1,3,4-thiadiazol-2-yl]-4-(methylamino)pyridin-2-yl}pyrrolo[1,2-b]pyridazine-3-carbonitrile] has a DC50 of 0.013 µM and a Dmax of 113%.
N#Cc1cnn2c(-c3cc(NC4CC4)c(-c4nnc(N5CC6CCC(C5)N6CC5CCN(c6ccc([C@@H]7CCC(=O)NC7=O)cc6)CC5)s4)cn3)ccc2c1 (single isomer, unassigned) [Example 123] showed a DC50 of 0.08 µM and a Dmax of 96%.
N#Cc1cnn2c(-c3cc(NC4CCOCC4)c(-c4nnc(N5CC6CCC(C5)N6CC5CCN(c6ccc([C@@H]7CCC(=O)NC7=O)cn6)CC5)s4)cn3)ccc2c1 (racemic) [Example 34, rac-7-[5-(5-{8-[(1-{5-[(3R)-2,6-dioxopiperidin-3-yl]pyridin-2-yl}piperidin-4-yl)methyl]-3,8-diazabicyclo[3.2.1]octan-3-yl}-1,3,4-thiadiazol-2-yl)-4-[(oxan-4-yl)amino]pyridin-2-yl]pyrrolo[1,2-b]pyridazine-3-carbonitrile] gave a DC50 of 0.024 µM and a Dmax of 97%.
Compound CNc1cc(-c2ccc3cc(C#N)cnn23)ncc1-c1nnc(C2CCN(CC3CCN(c4ccc(C5CCC(=O)NC5=O)cn4)CC3)CC2)s1 (racemic) [Example 81, rac-7-[5-(5-{1-[(1-{5-[(3R)-2,6-dioxopiperidin-3-yl]pyridin-2-yl}piperidin-4-yl)methyl]piperidin-4-yl}-1,3,4-thiadiazol-2-yl)-4-(methylamino)pyridin-2-yl]pyrrolo[1,2-b]pyridazine-3-carbonitrile] has a DC50 of 0.01 µM and a Dmax of 116%.
N#CCNc1cc(-c2ccc3cc(C#N)cnn23)ncc1-c1nnc(N2CC3CCC(C2)N3CC2CCN(c3ccc([C@H]4CCC(=O)NC4=O)cn3)CC2)s1 (racemic) [Example 104, rac-7-{4-[(cyanomethyl)amino]-5-(5-{8-[(1-{5-[(3R)-2,6-dioxopiperidin-3-yl]pyridin-2-yl}piperidin-4-yl)methyl]-3,8-diazabicyclo[3.2.1]octan-3-yl}-1,3,4-thiadiazol-2-yl)pyridin-2-yl}pyrrolo[1,2-b]pyridazine-3-carbonitrile] showed a DC50 of 0.004 µM and a Dmax of 115%.
In the case of N#Cc1cnn2c(-c3cc(NC4CCOCC4)c(-c4nnc(N5CCN(C(=O)C6CCN(c7cc(C8CCC(=O)NC8=O)ccn7)CC6)CC5)s4)cn3)ccc2c1 (racemic) [Example 16, rac-7-(5-{5-[4-(1-{4-[(3R)-2,6-dioxopiperidin-3-yl]pyridin-2-yl}piperidine-4-carbonyl)piperazin-1-yl]-1,3,4-thiadiazol-2-yl}-4-[(oxan-4-yl)amino]pyridin-2-yl)pyrrolo[1,2-b]pyridazine-3-carbonitrile], the DC50 is reported as 0.026 µM and the Dmax is reported as 62%.
With N#Cc1cnn2c(-c3cc(NC4CC4)c(-c4nnc(N5CC6CCC(C5)N6CC5CCN(c6ccc([C@@H]7CCC(=O)NC7=O)cn6)CC5)s4)cn3)ccc2c1 (single isomer, unassigned) [Example 125] the DC50 was 0.03 µM and the Dmax was 106%.
With C[C@H](C#N)Nc1cc(-c2ccc3cc(C#N)cnn23)ncc1-c1nnc(N2CCN(CC3CCN(c4ccc(C5CCC(=O)NC5=O)cn4)CC3)CC2)s1 (mixture of isomers) [Example 75, 7-(4-{[(1R)-1-cyanoethyl]amino}-5-(5-{4-[(1-{5-[(3RS)-2,6-dioxopiperidin-3-yl]pyridin-2-yl}piperidin-4-yl)methyl]piperazin-1-yl}-1,3,4-thiadiazol-2-yl)pyridin-2-yl)pyrrolo[1,2-b]pyridazine-3-carbonitrile] the DC50 was 0.009 µM and the Dmax was 111%.
In the case of N#Cc1cnn2c(-c3cc(NC4CCOCC4)c(-c4nnc(N5CCN(CC6CCN(C(=O)c7ccc(F)c(N8CCC(=O)NC8=O)c7)CC6)CC5)s4)cn3)ccc2c1 [Example 62, 7-(5-{5-[4-({1-[3-(2,4-dioxo-1,3-diazinan-1-yl)-4-fluorobenzoyl]piperidin-4-yl}methyl)piperazin-1-yl]-1,3,4-thiadiazol-2-yl}-4-[(oxan-4-yl)amino]pyridin-2-yl)pyrrolo[1,2-b]pyridazine-3-carbonitrile], the DC50 is reported as 0.012 µM and the Dmax is reported as 41%.
CNc1cc(-c2ccc3cc(C#N)cnn23)ncc1-c1nnc([C@H]2CC[C@H](CN3CCc4cc([C@H]5CCC(=O)NC5=O)ccc4C3)CC2)s1 (racemic) [Example 6, 7-[4-(methylamino)-5-{5-[(1r,4r)-4-({6-[(3RS)-2,6-dioxopiperidin-3-yl]-1,2,3,4-tetrahydroisoquinolin-2-yl}methyl)cyclohexyl]-1,3,4-thiadiazol-2-yl}pyridin-2-yl]pyrrolo[1,2-b]pyridazine-3-carbonitrile] gave a DC50 of 0.07 µM and a Dmax of 36%.
CNc1cc(-c2ccc3cc(C#N)cnn23)ncc1-c1nnc(N2CCN(CC3CCN(c4ccc(C5CCC(=O)NC5=O)cc4)CC3)CC2)s1 (racemic) [Example 79, rac-7-[5-(5-{4-[(1-{4-[(3R)-2,6-dioxopiperidin-3-yl]phenyl}piperidin-4-yl)methyl]piperazin-1-yl}-1,3,4-thiadiazol-2-yl)-4-(methylamino)pyridin-2-yl]pyrrolo[1,2-b]pyridazine-3-carbonitrile] was tested, and the DC50 was 0.021 µM and the Dmax was 115%.
Compound N#Cc1cnn2c(-c3cc(NC4CCOCC4)c(-c4nnc(N5CCN(C(=O)C6CCN(c7ccc(C8CCC(=O)NC8=O)cn7)CC6)CC5)s4)cn3)ccc2c1 (racemic) [Example 37, rac-7-(5-{5-[4-(1-{5-[(3R)-2,6-dioxopiperidin-3-yl]pyridin-2-yl}piperidine-4-carbonyl)piperazin-1-yl]-1,3,4-thiadiazol-2-yl}-4-[(oxan-4-yl)amino]pyridin-2-yl)pyrrolo[1,2-b]pyridazine-3-carbonitrile] has a DC50 of 0.013 µM and a Dmax of 108%.
Compound CNc1cc(-c2ccc3cc(C#N)cnn23)ncc1-c1nnc([C@H]2CC[C@H](C(=O)N3CCN(c4ccc([C@@H]5CCC(=O)NC5=O)cn4)CC3)CC2)s1 (racemic) [Example 39, 7-[4-(methylamino)-5-{5-[(1r,4r)-4-(4-{5-[(3RS)-2,6-dioxopiperidin-3-yl]pyridin-2-yl}piperazine-1-carbonyl)cyclohexyl]-1,3,4-thiadiazol-2-yl}pyridin-2-yl]pyrrolo[1,2-b]pyridazine-3-carbonitrile] has a DC50 of 0.019 µM and a Dmax of 108%.
With CNc1cc(-c2ccc3cc(C#N)cnn23)ncc1-c1nnc([C@H]2CC[C@H](C(=O)N3CCc4cc([C@H]5CCC(=O)NC5=O)ccc4C3)CC2)s1 (racemic) [Example 5, 7-[4-(methylamino)-5-{5-[(1r,4r)-4-{6-[(3RS)-2,6-dioxopiperidin-3-yl]-1,2,3,4-tetrahydroisoquinoline-2-carbonyl}cyclohexyl]-1,3,4-thiadiazol-2-yl}pyridin-2-yl]pyrrolo[1,2-b]pyridazine-3-carbonitrile] the DC50 was 0.021 µM and the Dmax was 79%.
N#Cc1cnn2c(-c3cc(NC4CCOCC4)c(-c4nnc(N5CC6CCC(C5)N6CC5CCN(c6ccc([C@H]7CCC(=O)NC7=O)cc6)CC5)s4)cn3)ccc2c1 (racemic) [Example 85, rac-7-[5-(5-{8-[(1-{4-[(3R)-2,6-dioxopiperidin-3-yl]phenyl}piperidin-4-yl)methyl]-3,8-diazabicyclo[3.2.1]octan-3-yl}-1,3,4-thiadiazol-2-yl)-4-[(oxan-4-yl)amino]pyridin-2-yl]pyrrolo[1,2-b]pyridazine-3-carbonitrile] showed a DC50 of 0.025 µM and a Dmax of 73%.
